Source: patent publication US12398121B2 (Nuvation Bio Inc., priority 2018, dated 2025)

Biological target: T1, ER Alpha-LBD (GST) (Homo sapiens, UniProt P03372)
T1 construct: purchased Thermo Fisher
T1 sequence (P03372 311-547 limits assumed): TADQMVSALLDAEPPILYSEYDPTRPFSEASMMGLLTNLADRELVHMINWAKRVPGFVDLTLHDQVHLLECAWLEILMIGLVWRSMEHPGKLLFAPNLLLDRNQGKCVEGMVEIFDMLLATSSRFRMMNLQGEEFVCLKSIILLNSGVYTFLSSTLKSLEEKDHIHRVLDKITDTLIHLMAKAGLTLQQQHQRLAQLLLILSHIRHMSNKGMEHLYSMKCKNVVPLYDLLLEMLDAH
Assay: ER binding assay (LanthaScreen TR-FRET ER Alpha Competitive Binding Assay)
Settings: Fluormone ES2 Green tracer, read-out: ERα Ki
Experimental: Cells were plated at varying density in the respective growth medium in 96 well plates. 24 hr later, cells were treated, in triplicate or quadruplicate, with test articles prepared in a range of concentrations by series dilution of DMSO stock solutions in growth medium and incubated for three to seven days. The number of viable 22RV1 and HT-29 cells was measured using CellTiter Glo assay (CTG, Promega, Madison, WI) after three days of treatment. The other types of cancer cells were re-treated at three or four days and the number of viable cells was measured using CTG assay after a total treatment time of six or seven days. Cell viability data were plotted using GraphPad Prism (GraphPad Software, Inc., San Diego, CA). In addition, a nonlinear regression model with a sigmoidal dose response and variable slope within GraphPad Prism was used to calculate the IC50 value of individual test articles. Additional cell proliferation assays: Other cancer cell lines are tested in a cell proliferation assay. For example, SK-OV-3 or OVCAR3 ovarian cancer cells are tested. Cells are cultured in medium recommended by the supplier (e.g., ATCC or JCRB Cell Bank), at 37° C. in a 5% CO2 environment. For the proliferation assay, cells are plated in the growth medium in 96 well plates. Seeding density is adjusted according to the cell type. […] The number of viable cells is measured using CellTiter Glo assay (CTG, Promega, Madison, WI) or similar. […] ER binding assay: ERα binding was assessed by the LanthaScreen® TR-FRET ER Alpha Competitive Binding Assay at Thermo Fisher. […] Competitive binding to the ER Alpha-LBD (GST) was detected by a test compound's ability to displace a fluorescent ligand (Fluormone™ ES2 Green tracer) from the ER Alpha-LBD (GST), which results in a loss of FRET signal between the Tb-anti-GST antibody and the tracer. […] After an incubation period at room temperature, the TR-FRET ratio of 520:495 emissions were calculated and was used to determine the IC50 from a dose response curve of the compound. […]

First: CN(CCCCCC(=O)N1CCN(C(=O)c2cc(Cc3n[nH]c(=O)c4ccccc34)ccc2F)CC1)CCOc1ccc(C(=O)c2c(-c3ccc(O)cc3)sc3cc(O)ccc23)cc1 [Compound 2.4, 4-(4-fluoro-3-(4-(6-((2-(4-(6-hydroxy-2-(4-hydroxyphenyl)benzo[b]thiophene-3-carbonyl)phenoxy)ethyl)(methyl)amino)hexanoyl)piperazine-1-carbonyl)benzyl)phthalazin-1(2H)-one]
Second: O=C(c1ccc(OCCN2CCN(C(=O)c3cc(Cc4n[nH]c(=O)c5ccccc45)ccc3F)CC2)cc1)c1c(-c2ccc(O)cc2)sc2cc(O)ccc12 [Compound 2.13, 4-(4-fluoro-3-(4-(2-(4-(6-hydroxy-2-(4-hydroxyphenyl)benzo[b]thiophene-3-carbonyl)phenoxy)ethyl)piperazine-1-carbonyl)benzyl)phthalazin-1(2H)-one]
The Ki of the first is 1.5-fold higher: 5 nM for the first, 3.3 nM for the second.

For `CCC(=C(c1ccc(O)cc1)c1ccc(OCCN2CCN(C(=O)c3cc(Cc4n[nH]c(=O)c5ccccc45)ccc3F)CC2)cc1)c1ccccc1` [Compound 2.14, 4-(4-fluoro-3-(4-(2-(4-(1-(4-hydroxyphenyl)-2-phenylbut-1-enyl)phenoxy)ethyl)piperazine-1-carbonyl)benzyl)pthalazin-1(2H)-one], the Ki was 3.5 nM.
